Here are results for 1 compound from patent US7592005B2, “Monoclonal antibody” (Kirin Beer Kabushiki Kaisha, priority 2000, dated 2009).

What is called IC50 is the midpoint of a concentration-inhibition curve.

For the series, the system named is IM9 cells. Kind of series: Cellular cytotoxicity on human myeloma cell line IM9 (MTS). The conditions noted are these: read-out: IC50, cellular cytotoxicity, free maytansine derivative.

Procedure: In the same manner as in Example 11, the reactivity to the human myeloma cell line IM9 cell (ATCC CCL-159) was investigated. […] Thereafter, a solution of MTS (3-(4,5-dimethylthiazol-2-yl)-5-(3-carboxymethoxyphenyl)-2-(4-sulphophenyl)-2H-tetrazolium, Promega) was added to each well in amounts of 20 μl each, followed by culturing for an additional 2 hours. Subsequently, the absorbance at 490 nm of the surviving cells was assayed using a microplate reader (MTP-300, Corona Electric Co., Ltd.).

As to `COc1cc2cc(c1Cl)N(C)C(=O)C[C@H](OC(=O)[C@H](C)N(C)C(=O)CCSSC)[C@]1(C)O[C@H]1[C@H](C)[C@@H]1C[C@@](O)(NC(=O)O1)[C@H](OC)/C=C/C=C(\C)C2` [May-SS-Me], the IC50 turned out to be 10 nM.
